Experimental data reported in US9808003B2, “Herbicidally active 2-(substituted-phenyl)-cyclopentane-1,3-dione compounds and derivatives thereof” (Syngenta Limited, priority 2013, dated 2017).
Like-named read-outs stand apart in the source and are kept apart here.

What was measured:
Assay type in all cases: in vivo
[1] = test system: Poa annua (POAAN); assay: Test 1B glasshouse assay, post-emergence herbicidal activity against grassy weeds; conditions: 14 DAA
Outline: (§1)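 Percent phytotoxicity (0–100%, 1% steps) was scored visually 14 days after spraying, as the mean of duplicates. Plants grown 14 days under glasshouse control received the herbicide post-emergence, typically 60–120 g/ha with or without 50 g/ha cloquintocet-mexyl safener, in spray containing 0.5% v/v Adigor.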

[2] = test system: Alopecurus myosuroides (ALOMY); assay: as above; conditions: 14 DAA
Outline: as §1

[3] = test system: Lolium multiflorum (LOLMU); assay: as above; conditions: 14 DAA
Outline: as §1

[4] = test system: Avena fatua (AVEFA); assay: as above; conditions: 14 DAA
Outline: as §1

[5] = test system: Setaria viridis (SETVI); assay: as above; conditions: 14 DAA
Outline: as §1

[6] = test system: Spring Barley “Harrington”; assay: Test 1B glasshouse assay, post-emergence herbicidal activity against cereal crops; conditions: 14 DAA
Outline: (§2)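 Technical compound in IF50 with acetone, diluted into 0.5% v/v Adigor, sprayed post-emergence on 14-day glasshouse plants (22/16 °C, 16 h light, 65% humidity), typically at 60, 90 or 120 g/ha, with or without 50 g/ha cloquintocet-mexyl safener. Phytotoxicity scored visually 14 DAA (0–100%), mean of two replicates.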

[7] = test system: Winter Barley “Suzuka”; assay: as above; conditions: 14 DAA
Outline: as §2

[8] = test system: Winter Wheat “Hereward”; assay: as above; conditions: 14 DAA
Outline: as §2

[9] = test system: Spring Wheat “Teal”; assay: as above; conditions: 14 DAA
Outline: as §2

[10] = test system: Alopecurus myosuroides (ALOMY); assay: Test 1A glasshouse assay, post-emergence herbicidal activity; conditions: Alopecurus myosuroides, 312 h, read-out: Post-emergence Herbicidal Activity (% Phytotoxicity) ALOMY
Outline: (§3)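 Read-out is visual percent phytotoxicity 13 days post-spray, 100% meaning total plant damage and 0% none. Seedlings were treated after 8 days' glasshouse cultivation with an aqueous spray of active ingredient in acetone/water 50:50 plus 0.5% Tween 20.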

[11] = test system: Echinochloa crus-galli (ECHCG); assay: as above; conditions: Echinochloa crus-galli, 312 h, read-out: Post-emergence Herbicidal Activity (% Phytotoxicity) ECHCG
Outline: as §3

[12] = test system: Avena fatua (AVEFA); assay: as above; conditions: Avena fatua, 312 h, read-out: Post-emergence Herbicidal Activity (% Phytotoxicity) AVEFA
Outline: as §3

[13] = test system: Lolium perenne (LOLPE); assay: as above; conditions: Lolium perenne, 312 h, read-out: Post-emergence Herbicidal Activity (% Phytotoxicity) LOLPE
Outline: as §3

[14] = test system: Alopecurus myosuroides (ALOMY); assay: Test 1A glasshouse assay, pre-emergence herbicidal activity; conditions: 312 h, read-out: Pre-emergence herbicidal activity (% phytotoxicity) ALOMY
Method: (§4) Seeds of a variety of test species were sown in standard soil in pots. After cultivation for one day (pre-emergence) or after 8 days cultivation (post-emergence) under controlled conditions in a glasshouse (at 24/16° C., day/night; 14 hours light; 65% humidity), the plants were sprayed with an aqueous spray solution derived from the formulation of the technical active ingredient in acetone/water (50:50) solution containing 0.5% Tween 20 (polyoxyethelyene sorbitan monolaurate, CAS RN 9005-64-5). The test plants were then grown under controlled conditions in a glasshouse (at 24/16° C., day/night; 14 hours light; 65% humidity) and watered twice daily. 13 days after application of the test herbicide, for pre- and post-emergence, the test was evaluated visually for percentage phytotoxicity to the plant (where 100%=total damage to plant; 0%=no damage to plant).
(§5) Test plants: Lolium perenne (LOLPE), Alopecurus myosuroides (ALOMY), Echinochloa crus-galli (ECHCG), and Avena fatua (AVEFA); these are all grassy monocotyledonous weeds.

[15] = test system: Echinochloa crus-galli (ECHCG); assay: as above; conditions: 312 h, read-out: Pre-emergence herbicidal activity (% phytotoxicity) ECHCG
Method: as §4, §5

[16] = test system: Avena fatua (AVEFA); assay: as above; conditions: 312 h, read-out: Pre-emergence herbicidal activity (% phytotoxicity) AVEFA
Method: as §4, §5

[17] = test system: Lolium perenne (LOLPE); assay: as above; conditions: 312 h, read-out: Pre-emergence herbicidal activity (% phytotoxicity) LOLPE
Method: as §4, §5

[18] = 60 g/ha herbicide, 0 g/ha cloquintocet-mexyl
[19] = 60 g/ha herbicide, 50 g/ha cloquintocet-mexyl
[20] = 30 g/ha herbicide, 50 g/ha cloquintocet-mexyl
[21] = application rate 250 g/ha, 13 days after application, visual (100%=total damage; 0%=no damage)
[22] = 250 g/ha, 13 days after application

Compound	Post-emergence herbicidal activity, percentage phytotoxicity, POAAN [1, 18]	Post-emergence herbicidal activity, percentage phytotoxicity, POAAN [1, 19]	Post-emergence herbicidal activity, percentage phytotoxicity, ALOMY [2, 18]	Post-emergence herbicidal activity, percentage phytotoxicity, ALOMY [2, 19]	Post-emergence herbicidal activity, percentage phytotoxicity, LOLMU [3, 18]	Post-emergence herbicidal activity, percentage phytotoxicity, LOLMU [3, 19]	Post-emergence herbicidal activity, percentage phytotoxicity, AVEFA [4, 18]	Post-emergence herbicidal activity, percentage phytotoxicity, AVEFA [4, 19]	Post-emergence herbicidal activity, percentage phytotoxicity, SETVI [5, 18]	Post-emergence herbicidal activity, percentage phytotoxicity, SETVI [5, 19]	Post-emergence herbicidal activity against cereal crops, percentage phytotoxicity, Spring Barley “Harrington” [6, 18]	Post-emergence herbicidal activity against cereal crops, percentage phytotoxicity, Spring Barley “Harrington” [6, 19]	Post-emergence herbicidal activity against cereal crops, percentage phytotoxicity, Winter Barley “Suzuka” [7, 18]	Post-emergence herbicidal activity against cereal crops, percentage phytotoxicity, Winter Barley “Suzuka” [7, 19]	Post-emergence herbicidal activity against cereal crops, percentage phytotoxicity, Winter Wheat “Hereward” [8, 18]	Post-emergence herbicidal activity against cereal crops, percentage phytotoxicity, Winter Wheat “Hereward” [8, 19]	Post-emergence herbicidal activity against cereal crops, percentage phytotoxicity, Spring Wheat “Teal” [9, 18]	Post-emergence herbicidal activity against cereal crops, percentage phytotoxicity, Spring Wheat “Teal” [9, 19]	also measured
Cc1cc(-n2cc(Cl)cn2)cc(C)c1C1C(=O)CC(CCNC(=O)c2ccccn2)C1=O (racemic) [Compound A34, N-[2-[3-[4-(4-chloropyrazol-1-yl)-2,6-dimethyl-phenyl]-2,4-dioxo-cyclopentyl]ethyl]pyridine-2-carboxamide]	78%	75%	65%	73%	83%	90%	100%	100%	80%	85%	83%	33%	83%	38%	20%	5%	43%	10%	pest or weed control at 250 g/ha [10]: 90%; pest or weed control at 250 g/ha [11]: 100%; pest or weed control at 250 g/ha [12]: 100%; pest or weed control at 250 g/ha [13]: 100%; inhibition at 250 g/ha [14]: 90%; inhibition at 250 g/ha [15]: 100%; inhibition at 250 g/ha [16]: 100%; inhibition at 250 g/ha [17]: 100%
CCc1cc(-n2cc(Cl)cn2)cc(C)c1C1C(=O)CC(CCNC(=O)c2ccccn2)C1=O (stereo not shown) [Compound A87, N-[2-[3-[4-(4-chloropyrazol-1-yl)-2-ethyl-6-methyl-phenyl]-2,4-dioxo-cyclopentyl]ethyl]pyridine-2-carboxamide]	83%	83%	97%	95%	100%	100%	100%	100%	93%	95%	73%	60%	83%	60%	43%	33%	48%	38%	Post-emergence herbicidal activity, percentage phytotoxicity, POAAN [1, 20]: 75%; Post-emergence herbicidal activity, percentage phytotoxicity, ALOMY [2, 20]: 70%; Post-emergence herbicidal activity, percentage phytotoxicity, LOLMU [3, 20]: 100%; Post-emergence herbicidal activity, percentage phytotoxicity, AVEFA [4, 20]: 100%; Post-emergence herbicidal activity, percentage phytotoxicity, SETVI [5, 20]: 73%; Post-emergence herbicidal activity against cereal crops, percentage phytotoxicity, Spring Barley “Harrington” [6, 20]: 0%; Post-emergence herbicidal activity against cereal crops, percentage phytotoxicity, Winter Barley “Suzuka” [7, 20]: 3%; Post-emergence herbicidal activity against cereal crops, percentage phytotoxicity, Winter Wheat “Hereward” [8, 20]: 23%; Post-emergence herbicidal activity against cereal crops, percentage phytotoxicity, Spring Wheat “Teal” [9, 20]: 18%; pest or weed control at 250 g/ha [10, 21]: 100%; pest or weed control at 250 g/ha [11, 21]: 100%; pest or weed control at 250 g/ha [12, 21]: 100%; pest or weed control at 250 g/ha [13, 21]: 100%; inhibition at 250 g/ha [14, 22]: 100%; inhibition at 250 g/ha [15, 22]: 100%; inhibition at 250 g/ha [16, 22]: 90%; inhibition at 250 g/ha [17, 22]: 100%
